This note sets out measurements from patent publication US9353119B2, “Composition for preventing and treating non-small cell lung cancer, containing pyrazino-triazine derivatives” (JW PHARMACEUTICAL CORPORATION, priority 2011, dated 2016).

Counter-ions that a name gives are not always drawn. Like-named read-outs stand apart in the source and are kept apart here.

For orientation: GI50 means the concentration that inhibits growth by half. A higher GI50 goes with lower sensitivity of the cells.

In data set [1] the test system is NCI-H1975 cells. In words: In vivo anticancer activity, NCI-H1975 xenograft (Experimental Example 5). On the procedure:
From Day 11 (D11) to Day 22 (D22) after the transplantation, three groups of the NCI-H1975-transplanted mice were administered with a bisodium salt of the compound of Chemical Formula 2-2 or cisplatin as summarized in Table 9, below.
The mean volume of tumors before the experiment (mean starting tumor volume) was 118 mm^3

In a further data set the test system is NCI-H23. The experiment in a line: In vitro cell growth inhibition (CellTiter-Glo), NCI-H23. Format: cell-based. The conditions noted are these: Homo sapiens; NCI-H23, 72 hrs. The method, then:
(§1) This experiment aims to evaluate the in vitro anticancer activity of the pyrazino-triazine derivative (Chemical Formula 1-1P) of the present invention in various NSCLC cell lines.
(§2) NSCLC cells lines were seeded at a density of 5×10^3 cells/well into 96-well plates. Compound 1-1P and the reference drug doxorubicin were serially diluted by ½ in the concentration range of from 0.001 μM to 1 μM and the cells in each well were treated with each dilution in duplicate, followed by incubation for 72 hours in a 37° C., 5% CO2 incubator. CellTiter-Glo® (Luminescent Cell Viability Assay, #G7573, Promega) was added in an amount of 100 μL to each well and shaken for 2 min to lyze the cells. After incubation for 10 min at room temperature (25° C.), luminescence from each well was on a luminometer (Envision (Perkinelmer).
(§3) The anticancer activity depending on the administration of Compound 1-1P was evaluated over seven different NSCLC cell lines by cell growth inhibition 50 (GI50), a concentration needed to reduce the growth of treated cells to half that of untreated cells, calculated according to the following formula. GI50=(50−(y1−((y1−y2)/(x1−x2))*x1)/((y1−y2)/(x1−x2))
(§4) x1, x2=50% cell kill or lethal concentrations
(§5) y1, y2=cell densities at 50% cell kill or lethal concentrations
(In general: ATP-based viability assays read luminescence as a measure of living cells.)

The next data set has as its system NCI-H1650. In words: In vitro cell growth inhibition (CellTiter-Glo), NCI-H1650. The format is cell-based. The conditions noted are these: Homo sapiens; NCI-H1650, 72 hrs. On the procedure:
as §1, §2, §3, §4, §5

In another data set the test system is NCI-H1975. In words: In vitro cell growth inhibition (CellTiter-Glo), NCI-H1975. Format: cell-based. The settings on record: Homo sapiens; NCI-H1975, 72 hrs. On the procedure:
as §1, §2, §3, §4, §5

The next data set concerns HCC827. The experiment in a line: In vitro cell growth inhibition (CellTiter-Glo), HCC827. Format: cell-based. The conditions noted are these: Homo sapiens; HCC827, 72 hrs. The method, then:
as §1, §2, §3, §4, §5

The subject of a further data set is NCI-H460. In words: In vitro cell growth inhibition (CellTiter-Glo), NCI-H460. Format: cell-based. The conditions noted are these: Homo sapiens; NCI-H460, 72 hrs. The method, then: as §1, §2, §3, §4, §5
The subject of another data set is A549. In words: In vitro cell growth inhibition (CellTiter-Glo), A549. Format: cell-based. The settings on record: Homo sapiens; A549, 72 hrs. On the procedure:
as §1, §2, §3, §4, §5

Another data set deals with PC6. In words: In vitro cell growth inhibition (CellTiter-Glo), PC6. The format is cell-based. The conditions noted are these: Homo sapiens, PC-6; PC6, 72 hrs. The method, then:
as §1, §2, §3, §4, §5

Data set [2] deals with NCI-H1975 cells. The experiment in a line: In vivo anticancer activity, NCI-H1975 xenograft (Experimental Example 1). Details: species or system Balb/c nude mice. The settings on record: for TGI %: Table 7 summary, NCI-H1975 (EGFR TKI resistant). The method, then: Measurements of body weights and tumor sizes were randomized for n=7 per group using in-house randomization software. The tumor size was calculated from measurements of the longest axis (length, m) and the shortest axis (width, m) according to the following formula: Tumor size (mm^3): Width (mm)×Width (mm)×Length (mm)/2
The anticancer activity depending on the administration was evaluated by tumor growth inhibition, (TGI, %) calculated according to the following formulas.
When the tumor size of the drug-administered group is larger than the initial tumor size: % TGI=100*(1−(tumor volumeDay X−tumor volumeInitial for treated group)/(tumor volumeDay X−tumor volumeInitial for Vehicle group))
When the tumor size of the drug-administered group is smaller than the initial tumor size: % TGI=100+100*(1−(Treated group tumor volumeDayX/Treated group tumor volumeinitial))
Herein, mortality indicated deaths resulting from drug administration.
Herein, maximum body weight loss (MBL) means the largest loss of body weight caused by drug administration and is an important factor for determining maximum tolerable dose (MTD). The change of body weight was expressed as percentage of the body weight just before drug administration (D1). As a rule, the dose at which 10% or more of the body weight was lost was determined as the MTD.

Another data set relates to NCI-H460 cells. Format: in vivo, Balb/c nude mice. The conditions noted are these: for TGI %: Table 7 summary, NCI-H460 (EGFR TKI resistant), Cpd 1-1 given TIW. The method, then:
From Day 6 (D1) to […] (D12) after the transplantation, three groups of the NCI-H460-transplanted mice were administered with compound of Chemical Formula 1-1 or paclitaxel as summarized in Table 3, below.

The next data set has as its system HCC827 cells. In words: In vivo anticancer activity, HCC827 xenograft (Experimental Example 3). The settings on record: for MBL (%): D11; for TGI %: Table 7 summary, HCC827 (EGFR TKI sensitive), dose not given.
Data set [3] has as its system NCI-H1975 cells. In words: In vivo anticancer activity, NCI-H1975 xenograft (Experimental Example 6). Details: species or system Balb/c nude mice. The method, then: From Day 11 (D11) to Day 22 (D22) after the transplantation, five groups of the NCI-H1975-transplanted mice were administered with compounds 1-3 and 1-5 as summarized in Table 11, below.
Data set [4] concerns NCI-H1975 cells. In words: In vivo anticancer activity, NCI-H1975 xenograft (Experimental Example 8). Details: species or system Balb/c nude mice. The conditions noted are these: Group 2: 60 mg/kg IV BIW for 2 weeks. On the procedure:
From Day 11 (D11) to Day 22 (D22) after the transplantation, two groups of the NCI-H1975-transplanted mice were administered with compound 1-7 as summarized in Table 13, below.

The mark [5] stands for this setting: Group 2: 200 mg/kg IV QDx5 for 2 weeks.
[6] abbreviates: Group 3: cisplatin 2.5 mg/kg IV BIW for 2 weeks.
Where [7] appears, read: Group 2: 1-1 100 mg/kg iv once a day, ten injections (D8-12, 15-19).
[8] abbreviates: Group 3: 1-1 150 mg/kg iv once a day, ten injections (D8-12, 15-19).
[9] abbreviates: Group 2: 1-1 150 mg/kg iv, six injections (D1, 3, 5, 8, 10, 12).
Where [10] appears, read: Group 2: 1-1 100 mg/kg iv once a day, 20 injections over four weeks.
Setting [11] is: Group 3: 1-1 150 mg/kg iv once a day, 20 injections over four weeks.
[12] abbreviates: Group 2: 40 mg/kg IV QDx5 for 2 weeks.
Where [13] appears, read: Group 3: 30 mg/kg IV QDx5 for 2 weeks.
[14] abbreviates: Group 6: paclitaxel 7.5 mg/kg ip once a week, two injections.
The mark [15] stands for this setting: Group 3: paclitaxel 20 mg/kg ip (D1, 3, 5, 8, 10, 12).
[16] abbreviates: Group 6: paclitaxel 10 mg/kg ip once per week, four injections.

Description for HCC827 cells: HCC827 (ATCC, CRL-2868), derived from NSCLC patients, is an NSCLC cell line having a deletion mutation on exon 19 (E746-A750), which is sensitive to EGFR TKI (Tarceva®, Iressa®). These cells were used to evaluate in vivo anticancer activity of the compounds of the present invention. In this regard, HCC827 cells were cultured on a mass scale, and subcutaneously transplanted at a density of 5×10^6 cells in 0.2 mL of HBSS per head into the right axillar region of mice (Balb/c nude mice). Three to five days after the transplantation, tumor masses were observed. From Day 8 to Day 32 after the transplantation, six groups of the HCC827-transplanted mice were administered with the compound of Chemical Formula 1-1 and/or paclitaxel as summarized in Table 5, below.
As the control, only saline was intravenously injected once a day to reach a total of 20 injections over a four week period (five times per week, D8-12, D15-19, D22-26, and D29-32) (Group 1).
The compound of Chemical Formula 1-1 was dissolved in saline and intravenously injected at a dose of 100 and 150 mg/kg once a day to reach a total of 20 injections over a four week period (five times per week, D8-12, D15-19, D22-26, and D29-32) (Groups 2 and 3, respectively).
Paclitaxel was intraperitoneally injected at a dose of 10 mg/kg once a day to reach a total of four injections over four weeks (once per week, D8, D15, D22, and D29) (Group 6).
The compound of Chemical Formula 1-1 was injected at a dose of 100 mg/kg and 150 mg/kg to the mice administered with paclitaxel at a dose of 10 mg/kg in the same manner as described above (Groups 4 and 5).
The mean volume of tumors before experiment (mean starting tumor volume) was 121 mm^3

`C[C@H]1[C@H]2N(C(=O)CN(C)N2C(=O)NCc2ccccc2)[C@@H](Cc2ccc(OP(=O)(O)O)cc2)C(=O)N1Cc1cccc2cccnc12` [2Na Salt of Cpd. 2-2]: in the data set with NCI-H1975 cells [1] (setting [5]), the “MBL (%)” value is given as “no loss”, the Mortality was 0/6, the “TGI % D22” value came out at 27% and the “Tumor size @D 22 (Mean ± S.E. mm^3)” value was 720 ± 104 mm^3.
In the case of `N.N.[Cl][Pt][Cl]` [Cisplatin, reference compound], in the data set with NCI-H1975 cells [1] (setting [6]), the Mortality is 0/6, the “TGI % D22” value worked out at 23% and the “Tumor size @D 22 (Mean ± S.E. mm^3)” value is given as 750 ± 53 mm^3.
Take `C=CCN1CC(=O)N2[C@@H](Cc3ccc(O)cc3)C(=O)N(Cc3cccc4c(C(C)=O)cn(C)c34)C[C@@H]2N1C(=O)NCc1ccccc1` [Compound 1-1P]: the GI50 with NCI-H23 is 67 nM; in the data set on NCI-H1650, 156 nM; in the data set on NCI-H1975 it was 111 nM; in the data set on HCC827 it was 115 nM; in the data set on NCI-H460 it was 272 nM; in the data set on A549 it was 372 nM. Further, in the data set with PC6, the GI50 is 493 nM.
Take `C=CCN1CC(=O)N2[C@@H](Cc3ccc(OP(=O)([O-])O)cc3)C(=O)N(Cc3cccc4c(C(C)=O)cn(C)c34)C[C@@H]2N1C(=O)NCc1ccccc1.[Na+]` [Compound 1-1]: the “Tumor size on D22 compared with vehicle control” value with NCI-H1975 cells [2] (D22, dose not given) is “significantly reduced”. In the data set on NCI-H1975 cells [2] (setting [7]), the Mortality is reported as 0/7, the “TGI % D22” value worked out at 74% and the “Tumor size @D 22) (Mean ± S.E. mm3)” value is 307 ± 97 mm3. In the data set with NCI-H1975 cells [2] (setting [8]), the Mortality is reported as 0/7, the “TGI % D22” value is given as 109% and the “Tumor size @D 22) (Mean ± S.E. mm3)” value is 57 ± 22 mm3. Further, the TGI % with NCI-H1975 cells [2] (dose not given) stood at 100%. Further, in the data set on NCI-H460 cells (setting [9]), the Mortality is listed as 0/6, the “TGI % D12” value was 25% and the “Tumor size @D 12 (Mean ± S.E. mm^3)” value was found to be 1196 ± 247 mm^3. Moreover, the “MBL (%)” value in the data set with NCI-H460 cells (Group 2: 1-1 150 mg/kg iv, six injections (D1, 3, 5, 8, 10, 12), @D2) is reported as 4 (@D2) %. The TGI % with NCI-H460 cells came to 25%. Moreover, in the data set with HCC827 cells (setting [10]), the Mortality was 0/7, the “TGI % D33” value worked out at 50%, the “Tumor size @D 33 (Mean ± S.E. mm^3)” value was found to be 380 ± 29 mm^3 and the “MBL (%)” value is 1 (D11) %. Further, in the data set with HCC827 cells (setting [11]), the Mortality is listed as 0/7, the “TGI % D33” value amounted to 68%, the “Tumor size @D 33 (Mean ± S.E. mm^3)” value came to 262 ± 30 mm^3 and the “MBL (%)” value was 1 (D11) %. Besides, in the data set with HCC827 cells, the TGI % stood at 78%.
For the compound `C=CCN1CC(=O)N2[C@@H](Cc3ccc(OP(=O)(O)O)cc3)C(=O)N(Cc3cccc4c(-c5ccc(C(=O)N6CCCCC6)cc5)cn(C)c34)C[C@@H]2N1C(=O)NCc1ccccc1` [Compound 1-3], in the data set with NCI-H1975 cells [3] (setting [12]), the Mortality is 0/6, the “TGI % D22” value is 62% and the “Tumor size @D 22 (Mean ± S.E. mm^3)” value was 571 ± 38 mm^3. In the data set on NCI-H1975 cells [3] (Group 2: 40 mg/kg IV QDx5 for 2 weeks, D19), the “MBL (%)” value is 4 (D19) %.
`C=CCN1CC(=O)N2[C@@H](Cc3ccc(OP(=O)(O)O)cc3)C(=O)N(Cc3cccc4c(C(=O)Nc5ccc(N(C)C)nc5)cn(C)c34)C[C@@H]2N1C(=O)NCc1ccccc1` [Compound 1-5]: in the data set on NCI-H1975 cells [3] (setting [13]), the Mortality is recorded as 0/6, the “TGI % D22” value is recorded as 71% and the “Tumor size @D 22 (Mean ± S.E. mm^3)” value is reported as 464 ± 45 mm^3. For the same compound, the “MBL (%)” value in the data set with NCI-H1975 cells [3] (Group 3: 30 mg/kg IV QDx5 for 2 weeks, D12) is on record as 5 (D12) %.
For `C=CCN1CC(=O)N2[C@@H](Cc3ccc(O)cc3)C(=O)N(Cc3cccc4c(C(=O)Nc5ccc(NCCN6CCOCC6)nc5)cn(C)c34)C[C@@H]2N1C(=O)NCc1ccccc1.Cl` [Compound 1-7], in the data set on NCI-H1975 cells [4], the Mortality was 0/5, the “TGI % D22” value is listed as 41% and the “Tumor size @D 22 (Mean ± S.E. mm^3)” value came to 410 mm^3.
Regarding `CC(=O)O[C@H]1C(=O)[C@@]2(C)[C@H]([C@H](OC(=O)c3ccccc3)[C@]3(O)C[C@H](OC(=O)[C@H](O)[C@@H](NC(=O)c4ccccc4)c4ccccc4)C(C)=C1C3(C)C)[C@]1(OC(C)=O)CO[C@@H]1C[C@@H]2O` [Paclitaxel, reference compound], in the data set on NCI-H1975 cells [2] (setting [14]), the Mortality was 0/7, the “TGI % D22” value was 28% and the “Tumor size @D 22) (Mean ± S.E. mm3)” value came out at 736 ± 79 mm3. The compound also gave a TGI % with NCI-H1975 cells [2] (dose not given) greater than 30%. Further, in the data set with NCI-H460 cells (setting [15]), the Mortality was 0/6, the “TGI % D12” value is 15% and the “Tumor size @D 12 (Mean ± S.E. mm^3)” value is listed as 1339 ± 260 mm^3. This compound returned a TGI % in the data set with NCI-H460 cells greater than 15%. Also, in the data set on HCC827 cells (setting [16]), the Mortality is recorded as 0/6, the “TGI % D33” value was 18% and the “Tumor size @D 33 (Mean ± S.E. mm^3)” value is on record as 557 ± 83 mm^3. The TGI % in the data set with HCC827 cells is recorded as greater than 18%.
